Results on 70 compounds are retold here after PubChem BioAssay AID977614 (Broad Institute, 2014).

Activity calls are given as the source filed them.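 The calls were made as follows: active = parasite count per well reduced by over 3 SD from the mean, with host cell number above 80% of untreated; inactive = the rest.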 Bounds are passed on as bounds.

One may read the AC50 as the concentration giving half of the maximal activity seen.

The subject of the test is L. donovani amastigotes in THP-1 macrophages, DAPI imaging, 72 h. Briefly: L. donovani intracellular amastigote growth inhibitors, imaging, THP-1 host macrophages, single concentration (AID 977614).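 Also: signal is the parasite per host cell ratio from DAPI stained kinetoplasts and nuclei.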
As for `O=C(Nc1ccc(F)cc1)N1C[C@@H]2[C@H](c3ccccc31)[C@H](CO)N2C(=O)c1ccncc1`, the AC50 is > 10 µM (inactive).
The value for `C[C@@H]1CN([C@H](C)CO)C(=O)CCCn2cc(nn2)CO[C@@H]1CN(C)Cc1ccccc1` was > 10 µM (inactive); that for `COCC(=O)N1[C@H](CO)[C@H]2c3ccccc3N(C(=O)c3cccnc3)C[C@H]21` was > 10 µM (inactive); that for `O=C(Nc1cccc(Cl)c1)N1C[C@@H]2[C@H](c3ccccc31)[C@@H](CO)N2Cc1cccnc1` was > 10 µM (inactive).
Turning to `O=C(c1ccncc1)N1C[C@@H]2[C@H](c3ccccc31)[C@H](CO)N2Cc1ccccc1F`, the AC50 is > 10 µM (inactive).
In the case of `CCC(=O)N(CC(C)C)C[C@H]1[C@H](c2ccccc2)[C@@H](CO)N1C(=O)C1CCC1`, the AC50 was > 10 µM (inactive).
For the compound `O=C(Nc1ccccc1F)N1C[C@H]2[C@@H](c3ccccc31)[C@@H](CO)N2C(=O)Cc1cccnc1`, the AC50 is > 10 µM (inactive).
Take `Cc1cccc(S(=O)(=O)N2C[C@@H]3[C@H](c4ccccc42)[C@H](CO)N3Cc2ccc3c(c2)OCO3)c1`: the AC50 was > 10 µM (inactive).
For the compound `CCC(=O)N1[C@H](CO)[C@H](c2ccc(-c3cccc(OC)c3)cc2)[C@@H]1CNC(C)=O`, the AC50 is > 10 µM (inactive).
The value for `C/C=C/c1ccc([C@H]2[C@@H](CN(C)C(=O)CC3CC3)N(C(=O)C3CC3)[C@H]2CO)cc1` was > 10 µM (inactive).
As for `CCCNC(=O)N1[C@@H]2CN(C(=O)c3ccncc3)c3ccccc3[C@@H]2[C@@H]1CO`, the figure is > 10 µM (inactive); as for `CC(=O)NC[C@H]1[C@@H](c2ccc(C#CC(C)C)cc2)[C@@H](CO)N1Cc1ccccn1`, > 10 µM (inactive).
Regarding `CCS(=O)(=O)N(C)C[C@@H]1N[C@H](CO)[C@@H]1c1ccc(C#CC(C)C)cc1`, the AC50 was > 10 µM (inactive).
`OC[C@H]1[C@@H]2c3ccccc3NC[C@@H]2N1Cc1cccnc1`: the AC50 was > 10 µM (inactive).
Consider `C/C=C/c1ccc([C@@H]2[C@@H](CNC(=O)C3CCC3)N(C(=O)NCCC)[C@H]2CO)cc1`, for which the AC50 was > 10 µM (inactive).
`CCCNC(=O)N1C[C@H]2[C@@H](c3ccccc31)[C@H](CO)N2C(=O)CN1CCOCC1`: the AC50 is > 10 µM (inactive).
Consider `COc1ccc(C(=O)N2C[C@H]3[C@@H](c4ccccc42)[C@@H](CO)N3C(=O)Cc2ccccn2)cc1`, for which the AC50 is > 10 µM (inactive).
On to `O=C(CC(F)(F)F)N1C[C@H]2[C@@H](c3ccccc31)[C@H](CO)N2Cc1cccnc1`, for which the AC50 was > 10 µM (inactive).
As for `COCC(=O)N1[C@@H](CO)[C@@H]2c3ccccc3N(C)C[C@@H]21`, the figure is > 10 µM (inactive); as for `O=C(C1CCCCC1)N1[C@H](CO)[C@H]2c3ccccc3N(S(=O)(=O)c3ccccc3)C[C@H]21`, > 10 µM (inactive); as for `CCCNC(=O)N(Cc1cccnc1)C[C@H]1N[C@H](CO)[C@@H]1c1ccccc1`, > 10 µM (inactive).
The value for `C[C@@H]1CN([C@@H](C)CO)C(=O)CCCn2nncc2CO[C@H]1CN(C)C(=O)c1ccc(N2CCN(C)CC2)cc1` was > 10 µM (inactive); that for `C/C=C/c1ccc([C@H]2[C@@H](CO)N(C(=O)CC)[C@@H]2CN(C(=O)C2CC2)C(C)C)cc1` was > 10 µM (inactive); that for `O=C(Nc1cccc(Cl)c1)N1C[C@H]2[C@@H](c3ccccc31)[C@H](CO)N2Cc1cccnc1` was > 10 µM (inactive).
On to `O=S(=O)(NC[C@H]1[C@H](c2ccccc2)[C@H](CO)N1CC1CC1)c1ccccc1`, for which the AC50 was > 10 µM (inactive).
As to `COc1ccccc1S(=O)(=O)N(C)C[C@@H]1OCc2cn(nn2)CCCC(=O)N([C@@H](C)CO)C[C@@H]1C`, the AC50 was > 10 µM (inactive).
Consider `CN1[C@@H](CO)[C@@H]2c3ccccc3N(C(=O)Nc3cc(F)ccc3F)C[C@@H]21`, for which the AC50 was > 10 µM (inactive).
Take `COc1ccccc1C(=O)N1C[C@H]2[C@@H](c3ccccc31)[C@@H](CO)N2C(=O)Cc1ccccc1`: the AC50 is > 10 µM (inactive).
As for `CCN(C[C@H]1[C@H](c2ccccc2)[C@@H](CO)N1S(C)(=O)=O)C(=O)C1CCCC1`, the figure is > 10 µM (inactive); as for `C[C@H]1CN([C@@H](C)CO)C(=O)CCCn2nncc2CO[C@@H]1CN(C)Cc1cccc2c1OCCCO2`, > 10 µM (inactive); as for `Cc1noc(C)c1NC(=O)N(C)C[C@@H]1OCc2cn(nn2)CCCC(=O)N([C@@H](C)CO)C[C@@H]1C`, > 10 µM (inactive).
As to `OC[C@H]1[C@H]2c3ccccc3NC[C@H]2N1Cc1cccnc1`, the AC50 is > 10 µM (inactive).
Regarding `COCCN(C[C@H]1N[C@H](CO)[C@@H]1c1ccc(-c2cccc(C#N)c2)cc1)C(C)=O`, the AC50 was > 10 µM (inactive).
Regarding `O=C(NC[C@H]1[C@H](c2ccccc2)[C@@H](CO)N1Cc1ccccn1)C1CCCC1`, the AC50 was > 10 µM (inactive).
On to `O=C(CN1CCOCC1)NC[C@@H]1N[C@@H](CO)[C@@H]1c1ccc(-c2ccccc2)cc1`, for which the AC50 is > 10 µM (inactive).
For `O=C(CC(F)(F)F)N1C[C@@H]2[C@H](c3ccccc31)[C@@H](CO)N2C(=O)C1CCCCC1`, the AC50 is > 10 µM (inactive).
For the compound `CCC(=O)N1[C@H](CO)[C@@H](c2ccccc2)[C@@H]1CN(C)C(=O)CN1CCOCC1`, the AC50 is > 10 µM (inactive).
As for `Cc1noc(C)c1S(=O)(=O)N(C)C[C@@H]1OCc2cnnn2CCCC(=O)N([C@@H](C)CO)C[C@H]1C`, the AC50 was > 10 µM (inactive).
For the compound `CCN(C[C@@H]1[C@H](c2ccccc2)[C@@H](CO)N1CC1CC1)C(=O)c1ccccn1`, the AC50 is > 10 µM (inactive).
`O=C(Nc1ccc(F)cc1)N1C[C@H]2[C@@H](c3ccccc31)[C@H](CO)N2C(=O)c1ccncc1`: the AC50 was > 10 µM (inactive).
As to `COc1ccccc1S(=O)(=O)N(C)C[C@@H]1OCc2cn(nn2)CCCC(=O)N([C@H](C)CO)C[C@@H]1C`, the AC50 is > 10 µM (inactive).
The value for `C[C@H](CO)N1C[C@H](C)[C@@H](CN(C)C(=O)c2cc(-c3ccccc3)on2)OCc2cnnn2CCCC1=O` was > 10 µM (inactive); that for `CCC(=O)N(C)C[C@@H]1[C@@H](c2ccccc2)[C@H](CO)N1Cc1cccnc1` was > 10 µM (inactive); that for `CCN(C[C@@H]1[C@@H](c2ccccc2)[C@H](CO)N1C(C)=O)C(=O)NC1CCCC1` was > 10 µM (inactive).
On to `CCN(C[C@H]1[C@H](c2ccccc2)[C@H](CO)N1C(C)=O)C(=O)NC1CCCC1`, for which the AC50 was > 10 µM (inactive).
`Cc1ccc(S(=O)(=O)N2C[C@H]3[C@@H](c4ccccc42)[C@H](CO)N3Cc2cccnc2)cc1`: the AC50 was > 10 µM (inactive).
As for `COc1ccc(C(=O)N2C[C@@H]3[C@H](c4ccccc42)[C@@H](CO)N3C(=O)NC(C)C)cc1`, the figure is > 10 µM (inactive); as for `C[C@@H]1CN([C@H](C)CO)C(=O)CCCn2nncc2CO[C@@H]1CN(C)CC1CCCCC1`, > 10 µM (inactive); as for `COCC(=O)N1C[C@H]2[C@@H](c3ccccc31)[C@@H](CO)N2C(=O)c1ccccc1F`, > 10 µM (inactive).
As to `O=C(NC[C@@H]1[C@@H](c2ccccc2)[C@H](CO)N1Cc1cccnc1)c1ccccn1`, the AC50 is > 10 µM (inactive).
As for `CC(=O)N1[C@@H]2CN(C(=O)c3ccc(F)cc3)c3ccccc3[C@@H]2[C@@H]1CO`, the figure is > 10 µM (inactive).
On to `C[C@@H]1CN([C@@H](C)CO)C(=O)CCCn2cc(nn2)CO[C@@H]1CN(C)C(=O)CCC(F)(F)F`, for which the AC50 was > 10 µM (inactive).
As for `COc1ccccc1NC(=O)N1C[C@H]2[C@@H](c3ccccc31)[C@H](CO)N2CC1CCOCC1`, the figure is > 10 µM (inactive).
The value for `O=C(C1CCOCC1)N1C[C@H]2[C@@H](c3ccccc31)[C@@H](CO)N2C(=O)Nc1ccccc1F` was > 10 µM (inactive).
As to `C[C@@H]1CN([C@@H](C)CO)C(=O)CCCn2cc(nn2)CO[C@H]1CN(C)C(=O)Nc1cccc(C(F)(F)F)c1`, the AC50 is > 10 µM (inactive).
With `O=C(NC[C@H]1[C@H](c2ccccc2)[C@@H](CO)N1C(=O)Cc1ccncc1)C1CCC1`, the AC50 is > 10 µM (inactive).
`O=C(C1CCC1)N1C[C@@H]2[C@H](c3ccccc31)[C@@H](CO)N2C(=O)Nc1cccc(F)c1`: the AC50 is > 10 µM (inactive).
Consider `COc1cccc(C(=O)N2C[C@@H]3[C@H](c4ccccc42)[C@H](CO)N3C(=O)c2cccc(F)c2)c1`, for which the AC50 was > 10 µM (inactive).
As for `CCC(=O)N(CC(C)C)C[C@@H]1[C@@H](c2ccccc2)[C@H](CO)N1C(=O)C1CCC1`, the figure is > 10 µM (inactive); as for `Cc1noc(C)c1S(=O)(=O)N(C)C[C@H]1OCc2cn(nn2)CCCC(=O)N([C@H](C)CO)C[C@H]1C`, > 10 µM (inactive); as for `CC(=O)N1[C@H](CO)[C@H](c2ccccc2)[C@H]1CN(C(=O)c1ccccc1F)C(C)C`, > 10 µM (inactive).
On to `CN(C[C@H]1N[C@@H](CO)[C@H]1c1ccc(-c2cccc(F)c2)cc1)C(=O)CC1CC1`, for which the AC50 is > 10 µM (inactive).
Regarding `C[C@@H]1CN([C@H](C)CO)C(=O)CCCn2nncc2CO[C@H]1CN(C)S(=O)(=O)c1cn(C)cn1`, the AC50 was > 10 µM (inactive).
Regarding `CCC(=O)N1[C@H](CO)[C@H](c2ccc(C#CC3CCCCC3)cc2)[C@@H]1CNC(C)C`, the AC50 is > 10 µM (inactive).
The value for `Cc1ccc(S(=O)(=O)N2C[C@@H]3[C@H](c4ccccc42)[C@@H](CO)N3Cc2cccnc2)cc1` was > 10 µM (inactive).
With `O=S(=O)(NC[C@H]1[C@H](c2ccccc2)[C@@H](CO)N1CC1CC1)c1ccccc1`, the AC50 was > 10 µM (inactive).
Turning to `C[C@H]1CN([C@@H](C)CO)C(=O)CCCn2nncc2CO[C@H]1CN(C)C(=O)Nc1ccc(-c2cccs2)cc1`, the AC50 was > 10 µM (inactive).
Consider `COc1ccccc1CN1[C@@H]2CN(C(=O)C3CCOCC3)c3ccccc3[C@@H]2[C@@H]1CO`, for which the AC50 was > 10 µM (inactive).
For the compound `C/C=C/c1ccc([C@@H]2[C@@H](CO)N[C@@H]2CN(CC(C)C)C(=O)c2ccccn2)cc1`, the AC50 is > 10 µM (inactive).
In the case of `COCCN(C[C@@H]1[C@@H](c2ccccc2)[C@H](CO)N1C(=O)C1CC1)C(C)=O`, the AC50 is > 10 µM (inactive).
